Measurements published in PubChem BioAssay AID248 (DTP/NCI, 2004).
Values joined by “and” are separate entries in the source; they are usually repeats but may differ in a detail not shown here. Identical values can stand only once. Inconclusive results and toxic doses are left out. Cut-off read from the data, not from the text of the source: active = T/C of 150% or more; inactive = T/C below 125%.

Tested on: L1210 leukemia ip in BDF1 mice, survival T/C
Test: NCI In Vivo Anticancer Drug Screen. Data for tumor model L1210 Leukemia (intraperitoneal) in B6D2F1 (BDF1) mice
Settings: endpoint: mean survival time, higher = longer survival
Outline: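 Tumor was transplanted into mice, which were then dosed with test compound or vehicle alone. Survival was recorded for each group, and the treated figure was expressed relative to the control figure.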

[1] = dose: 100.0 mg/kg/injection, schedule: Q01DX009 (ip), vehicle: Klucel (hydroxypropylcellulose) (HPC)
[2] = dose: 100.0 mg/kg/injection, schedule: Q04DX003 (ip), vehicle: Klucel (hydroxypropylcellulose) (HPC)
[3] = dose: 200.0 mg/kg/injection, schedule: Q01DX009 (ip), vehicle: Klucel (hydroxypropylcellulose) (HPC)
[4] = dose: 200.0 mg/kg/injection, schedule: Q04DX003 (ip), vehicle: Klucel (hydroxypropylcellulose) (HPC)
[5] = dose: 400.0 mg/kg/injection, schedule: Q01DX009 (ip), vehicle: Klucel (hydroxypropylcellulose) (HPC)
[6] = dose: 25.0 mg/kg/injection, schedule: Q01DX009 (ip), vehicle: Klucel (hydroxypropylcellulose) (HPC)
[7] = dose: 50.0 mg/kg/injection, schedule: Q01DX009 (ip), vehicle: Klucel (hydroxypropylcellulose) (HPC)
[8] = dose: 100.0 mg/kg/injection, schedule: Q01DX001 (ip), vehicle: saline
[9] = dose: 200.0 mg/kg/injection, schedule: Q01DX001 (ip), vehicle: saline
[10] = dose: 400.0 mg/kg/injection, schedule: Q01DX001 (ip), vehicle: saline
[11] = dose: 100.0 mg/kg/injection, schedule: Q01DX001 (ip), vehicle: carboxymethylcellulose (CMC)
[12] = dose: 200.0 mg/kg/injection, schedule: Q01DX001 (ip), vehicle: carboxymethylcellulose (CMC)
[13] = dose: 400.0 mg/kg/injection, schedule: Q01DX001 (ip), vehicle: carboxymethylcellulose (CMC)
[14] = dose: 400.0 mg/kg/injection, schedule: Q04DX003 (ip), vehicle: Klucel (hydroxypropylcellulose) (HPC)
[15] = dose: 100.0 mg/kg/injection, schedule: Q01DX001 (ip), vehicle: Klucel (hydroxypropylcellulose) (HPC)
[16] = dose: 100.0 mg/kg/injection, schedule: Q04DX002 (ip), vehicle: Klucel (hydroxypropylcellulose) (HPC)
[17] = dose: 200.0 mg/kg/injection, schedule: Q04DX002 (ip), vehicle: Klucel (hydroxypropylcellulose) (HPC)
[18] = dose: 400.0 mg/kg/injection, schedule: Q04DX002 (ip), vehicle: Klucel (hydroxypropylcellulose) (HPC)

Measured: T/C

CC(Oc1cc(Cl)ccc1Cl)C(=O)O (stereo not given)
inactive: dose: 50.0 mg/kg/injection, schedule: Q04DX003 (ip), vehicle: Klucel (hydroxypropylcellulose) (HPC) 114 % of control | [1] 110 % of control | [2] 105 % of control | [3] 114 % of control | [4] 104 % of control | [5] 108 % of control

C[P+](c1ccc(F)cc1)(c1ccc(F)cc1)c1ccc(F)cc1
inactive: [6] 98 % of control | [7] 96 % of control | [2] 89 % of control

Cc1cc(O)c(C(=O)/C=C/c2ccccc2)c(=O)[nH]1
inactive: [8] 86 % of control | [9] 96 % of control | [10] 92 % of control

O=C(O)CN1C(=O)C2C3CCC(O3)C2C1=O (stereo not given)
inactive: dose: 100.0 mg/kg/injection, schedule: Q04DX003 (ip), vehicle: saline 107 % of control | dose: 200.0 mg/kg/injection, schedule: Q04DX003 (ip), vehicle: saline 98 % of control | dose: 400.0 mg/kg/injection, schedule: Q04DX003 (ip), vehicle: saline 98 % of control

CCCCSc1n[nH]c(=O)[nH]c1=O
inactive: [8] 113 % of control | [9] 92 % of control | [10] 95 % of control

C[CH2][Sb]([Cl])([CH2]C)([CH2]C)[O][Sb]([Cl])([CH2]C)([CH2]C)[CH2]C
inactive: dose: 10.0 mg/kg/injection, schedule: Q01DX001 (ip), vehicle: saline 109 % of control | dose: 20.0 mg/kg/injection, schedule: Q01DX001 (ip), vehicle: saline 114 % of control | dose: 40.0 mg/kg/injection, schedule: Q01DX001 (ip), vehicle: saline 123 % of control

N#Cc1ccccc1-c1ccccc1C#N
inactive: [11] 105 % of control | [12] 107 % of control | [13] 107 % of control

O=C(NCCCl)NC1C(O)OC(CO)C(O)C1O (stereo not given)
inactive: dose: 25.0 mg/kg/injection, schedule: Q01DX009 (ip), vehicle: water 95 % of control | dose: 50.0 mg/kg/injection, schedule: Q01DX009 (ip), vehicle: water 110 % of control | [8] 97 % of control | dose: 100.0 mg/kg/injection, schedule: Q01DX009 (ip), vehicle: water 105 % of control | [9] 98 % of control | dose: 200.0 mg/kg/injection, schedule: Q01DX009 (ip), vehicle: water 100 % of control | [10] 96 % of control | dose: 400.0 mg/kg/injection, schedule: Q01DX009 (ip), vehicle: water 97 % of control

CCc1ccccc1NC(=O)Nc1ccc(Cl)c(Cl)c1
inactive: [1] 88 % of control | [2] 98 % of control | [3] 96 % of control | [4] 93 % of control | [5] 88 % of control | [14] 104 % of control

Clc1ccc(Nc2cc[n+]3ccccc3c2)cc1Cl
inactive: dose: 25.0 mg/kg/injection, schedule: Q01DX001 (ip), vehicle: Klucel (hydroxypropylcellulose) (HPC) 98 % of control | dose: 50.0 mg/kg/injection, schedule: Q01DX001 (ip), vehicle: Klucel (hydroxypropylcellulose) (HPC) 96 % of control | [15] 102 % of control and 117 % of control

COc1ccc(-c2cnc(=S)[nH]c2N)cc1
inactive: [15] 116 % of control | dose: 200.0 mg/kg/injection, schedule: Q01DX001 (ip), vehicle: Klucel (hydroxypropylcellulose) (HPC) 121 % of control | dose: 400.0 mg/kg/injection, schedule: Q01DX001 (ip), vehicle: Klucel (hydroxypropylcellulose) (HPC) 119 % of control

CCCCO[Si](C)(C)CCl
inactive: dose: 50.0 mg/kg/injection, schedule: Q01DX001 (ip), vehicle: carboxymethylcellulose (CMC) 101 % of control | [11] 101 % of control | [12] 106 % of control | [13] 97 % of control

CN(C)C=Nc1cc2c3c(c1)CCCN3CCC2
inactive: dose: 12.5 mg/kg/injection, schedule: Q01DX001 (ip), vehicle: saline 103 % of control | dose: 25.0 mg/kg/injection, schedule: Q01DX001 (ip), vehicle: saline 105 % of control

COc1ccc(COC(=O)Oc2ccc(OC)cc2)cc1
inactive: [2] 102 % of control | [4] 98 % of control | [14] 112 % of control

CC(=O)Nc1ccc(/C=C(\C#N)c2ccc([N+](=O)[O-])cc2)cc1
inactive: dose: 100.0 mg/kg/injection, schedule: Q04DX002 (ip), vehicle: gum acacia 95 % of control | dose: 200.0 mg/kg/injection, schedule: Q04DX002 (ip), vehicle: gum acacia 103 % of control | dose: 400.0 mg/kg/injection, schedule: Q04DX002 (ip), vehicle: gum acacia 95 % of control

COc1cc(/C=N/NC(=O)c2ccccc2)cc(OC)c1OC
inactive: dose: 100.0 mg/kg/injection, schedule: Q01DX009 (ip), vehicle: saline with Tween-80 97 % of control | dose: 100.0 mg/kg/injection, schedule: Q04DX003 (ip), vehicle: saline with Tween-80 90 % of control | dose: 200.0 mg/kg/injection, schedule: Q01DX009 (ip), vehicle: saline with Tween-80 92 % of control | dose: 200.0 mg/kg/injection, schedule: Q04DX003 (ip), vehicle: saline with Tween-80 91 % of control | dose: 400.0 mg/kg/injection, schedule: Q01DX009 (ip), vehicle: saline with Tween-80 97 % of control | dose: 400.0 mg/kg/injection, schedule: Q04DX003 (ip), vehicle: saline with Tween-80 90 % of control

Cc1cc2c(cc1C)N(C(=O)CCl)CCN2C(=O)CCl
inactive: dose: 5.0 mg/kg/injection, schedule: Q01DX Z (ip), vehicle: carboxymethylcellulose (CMC) 97 % of control | dose: 10.0 mg/kg/injection, schedule: Q01DX Z (ip), vehicle: carboxymethylcellulose (CMC) 105 % of control | dose: 20.0 mg/kg/injection, schedule: Q01DX Z (ip), vehicle: carboxymethylcellulose (CMC) 100 % of control | [8] 104 % of control | [9] 98 % of control | [10] 98 % of control

COC(=O)c1ccc(C(=O)CC(=O)c2ccccc2)cc1.COC(=O)c1ccc(C(=O)CC(=O)c2ccccc2)cc1.COC(=O)c1ccc(C(=O)CC(=O)c2ccccc2)cc1.COC(=O)c1ccc(C(=O)CC(=O)c2ccccc2)cc1.COC(=O)c1ccc(C(=O)CC(=O)c2ccccc2)cc1.[Th]
inactive: dose: 25.0 mg/kg/injection, schedule: Q01DX005 (ip), vehicle: Klucel (hydroxypropylcellulose) (HPC) 89 % of control | [6] 100 % of control | dose: 50.0 mg/kg/injection, schedule: Q01DX005 (ip), vehicle: Klucel (hydroxypropylcellulose) (HPC) 93 % of control | [7] 100 % of control | dose: 100.0 mg/kg/injection, schedule: Q01DX005 (ip), vehicle: Klucel (hydroxypropylcellulose) (HPC) 93 % of control and 89 % of control | [1] 93 % of control | [16] 96 % of control | [17] 100 % of control | [18] 93 % of control

C=CCN(C=O)CC=C
inactive: dose: 100.0 mg/kg/injection, schedule: Q01DX009 (ip), vehicle: saline 101 % of control

Cc1cn2nnnc2nc1-c1ccccc1O
inactive: [16] 98 % of control | [17] 91 % of control | [18] 94 % of control

NNC(=O)c1ccc(Cl)cc1Cl
inactive: dose: 6.25 mg/kg/injection, schedule: Q04DX003 (ip), vehicle: saline sonified 97 % of control | dose: 12.5 mg/kg/injection, schedule: Q01DX009 (ip), vehicle: Klucel (hydroxypropylcellulose) (HPC) 96 % of control | dose: 12.5 mg/kg/injection, schedule: Q04DX003 (ip), vehicle: saline sonified 101 % of control | [6] 106 % of control | dose: 25.0 mg/kg/injection, schedule: Q04DX003 (ip), vehicle: saline sonified 95 % of control

CC(=O)Nc1ccc(/C=N/NC(=O)COCC(=O)N/N=C/c2ccc(NC(C)=O)cc2)cc1
inactive: [1] 91 % of control | [3] 94 % of control | [5] 96 % of control

Clc1ccc(C2SCCS2)c(Cl)c1
inactive: [1] 105 % of control | [3] 108 % of control | [5] 124 % of control

O=C(CCc1ccc(Cl)cc1)Nc1ccccc1
inactive: dose: 25.0 mg/kg/injection, schedule: Q04DX002 (ip), vehicle: Klucel (hydroxypropylcellulose) (HPC) 97 % of control | dose: 50.0 mg/kg/injection, schedule: Q04DX002 (ip), vehicle: Klucel (hydroxypropylcellulose) (HPC) 86 % of control | [16] 93 % of control
